The source of these data is US20250340574A1, “MODULATORS OF CYSTIC FIBROSIS TRANSMEMBRANE CONDUCTANCE REGULATOR” (Vertex Pharmaceuticals Incorporated, priority 2022, published 2025).

The target of the assay is T1, CFTR (F508del/MF-HBE cells) (Homo sapiens, UniProt P13569, DEL508-508).
T1 construct: human bronchial epithelial (HBE) cells derived from CF subjects heterozygous for F508del and a minimal function CFTR mutation (F508del/MF-HBE); endogenous in cells; host or cells: Primary human bronchial epithelial cells from CF subjects (F508del/MF genotype), differentiated at an air-liquid interface
T1 sequence (P13569 with tags, fused parts or gaps DEL508-508): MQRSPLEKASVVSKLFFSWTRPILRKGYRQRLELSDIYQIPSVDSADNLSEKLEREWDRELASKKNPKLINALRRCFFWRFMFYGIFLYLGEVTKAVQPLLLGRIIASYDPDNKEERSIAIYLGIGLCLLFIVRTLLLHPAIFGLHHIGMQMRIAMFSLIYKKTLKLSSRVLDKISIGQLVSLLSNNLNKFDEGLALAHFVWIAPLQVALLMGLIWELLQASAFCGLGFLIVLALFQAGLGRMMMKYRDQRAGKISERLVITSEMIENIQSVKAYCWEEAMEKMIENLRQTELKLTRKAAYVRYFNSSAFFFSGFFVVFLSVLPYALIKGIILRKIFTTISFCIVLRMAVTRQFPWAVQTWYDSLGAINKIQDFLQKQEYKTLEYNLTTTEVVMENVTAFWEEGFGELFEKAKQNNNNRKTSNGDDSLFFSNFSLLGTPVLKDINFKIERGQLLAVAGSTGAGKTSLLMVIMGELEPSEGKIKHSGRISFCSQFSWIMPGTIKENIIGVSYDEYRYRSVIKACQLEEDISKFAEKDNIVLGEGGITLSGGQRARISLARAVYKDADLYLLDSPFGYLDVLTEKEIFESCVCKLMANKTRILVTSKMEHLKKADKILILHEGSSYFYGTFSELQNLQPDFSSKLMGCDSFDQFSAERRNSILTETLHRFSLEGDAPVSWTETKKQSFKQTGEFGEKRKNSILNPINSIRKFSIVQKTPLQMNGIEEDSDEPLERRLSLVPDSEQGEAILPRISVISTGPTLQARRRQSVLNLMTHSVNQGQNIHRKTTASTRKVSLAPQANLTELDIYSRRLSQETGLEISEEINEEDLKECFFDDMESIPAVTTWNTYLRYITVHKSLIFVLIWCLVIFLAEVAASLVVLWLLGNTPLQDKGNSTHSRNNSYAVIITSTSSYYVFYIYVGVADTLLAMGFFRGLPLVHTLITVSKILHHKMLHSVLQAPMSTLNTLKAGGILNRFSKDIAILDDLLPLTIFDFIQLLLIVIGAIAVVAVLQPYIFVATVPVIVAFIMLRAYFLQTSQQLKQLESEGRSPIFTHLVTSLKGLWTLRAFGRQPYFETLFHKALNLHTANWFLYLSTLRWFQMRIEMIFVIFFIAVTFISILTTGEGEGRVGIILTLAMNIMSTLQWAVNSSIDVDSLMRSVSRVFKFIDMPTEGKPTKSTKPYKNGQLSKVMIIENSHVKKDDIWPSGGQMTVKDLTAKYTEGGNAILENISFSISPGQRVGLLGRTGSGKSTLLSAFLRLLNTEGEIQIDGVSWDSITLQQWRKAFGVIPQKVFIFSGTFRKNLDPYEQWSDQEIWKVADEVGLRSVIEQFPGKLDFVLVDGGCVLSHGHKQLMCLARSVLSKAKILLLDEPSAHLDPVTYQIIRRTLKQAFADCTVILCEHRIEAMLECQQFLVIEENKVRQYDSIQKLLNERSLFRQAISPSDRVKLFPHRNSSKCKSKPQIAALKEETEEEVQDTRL
Put plainly: Ussing chamber assay of CFTR-mediated short-circuit currents, Assay A (0.1 μM to 25 μM, 6 concentrations). In kind it is cell-based. Particulars: with 33 nM potentiator and 18 μM Tezacaftor, 20% human serum; for Emax: 18-24 hours, read-out: A Max activity (%). The procedure: Ussing chamber experiments were performed using human bronchial epithelial (HBE) cells derived from CF subjects heterozygous for F508del and a minimal function CFTR mutation (F508del/MF-HBE) and cultured as previously described (Neuberger T, Burton B, Clark H, Van Goor F Methods Mol Biol 2011:741:39-54). After four days the apical media was removed, and the cells were grown at an air liquid interface for >14 days prior to use.
To isolate the CFTR-mediated short-circuit (ISC) current, F508del/MF-HBE grown on Costar® Snapwell™ cell culture inserts were mounted in an Ussing chamber and the transepithelial ISC was measured under voltage-clamp recording conditions (Vhold=0 mV) at 37° C. The basolateral solution contained (in mM) 145 NaCl, 0.83 K2HPO4, 3.3 KH2PO4, 1.2 MgCl2, 1.2 CaCl2, 10 Glucose, 10 HEPES (pH adjusted to 7.4 with NaOH) and the apical solution contained (in mM) 145 NaGluconate, 1.2 MgCl2, 1.2 CaCl2, 10 glucose, 10 HEPES (pH adjusted to 7.4 with NaOH) and 30 μM amiloride to block the epithelial sodium channel. Forskolin (20 μM) was added to the apical surface to activate CFTR, followed by apical addition of a CFTR inhibitor cocktail consisting of BPO, GlyH-101, and CFTR inhibitor 172 (each at 20 μM final assay concentration) to specifically isolate CFTR currents. The CFTR-mediated ISC (μA/cm^2) for each condition was determined from the peak forskolin response to the steady-state current following inhibition.
The activity of the CFTR corrector compounds on the CFTR-mediated ISC was determined in Ussing chamber studies as described above. The F508del/MF-HBE cell cultures were either incubated with the corrector compounds at a range of concentrations in combination with 33 nM (6R,12R)-17-amino-12-methyl-6,15-bis(trifluoromethyl)-13,19-dioxa-3,4,18-triazatricyclo[12.3.1.12,5]nonadeca-1(18),2,4,14,16-pentaen-6-ol and 18 μM Tezacaftor or were incubated with the corrector compounds at a single fixed concentration of 1 μM in combination with 44 nM (6R,12R)-17-amino-12-methyl-6,15-bis(trifluoromethyl)-13,19-dioxa-3,4,18-triazatricyclo[12.3.1.12,5]nonadeca-1(18),2,4,14,16-pentaen-6-ol and 18 μM Tezacaftor for 18-24 hours at 37° C. and in the presence of 20% human serum. The concentration of corrector compounds with 44 nM or 33 nM (6R,12R)-17-amino-12-methyl-6,15-bis(trifluoromethyl)-13,19-dioxa-3,4,18-triazatricyclo[12.3.1.12,5]nonadeca-1(18),2,4,14,16-pentaen-6-ol and 18 μM Tezacaftor during the 18-24 hours incubations was kept constant throughout the Ussing chamber measurement of the CFTR-mediated ISC to ensure compounds were present throughout the entire experiment. The efficacy and potency of the putative F508del correctors was compared to that of the known Vertex corrector, (14S)-8-[3-(2-{Dispiro[2.0.2.1]heptan-7-yl}ethoxy)-1H-pyrazol-1-yl]-12,12-dimethyl-2λ^6-thia-3,9,11,18,23-pentaazatetracyclo[17.3.1.111,14.05,10]tetracosa-1(22),5,7,9,19(23),20-hexaene-2,2,4-trione, in combination with 18 μM Tezacaftor and 1 μM Ivacaftor.
• Assay A: 0.1 μM to 25 μM, 6 concentrations • Assay B: 0.00001 μM to 25 μM, 12 concentrations • Assay C: 0.026 μM to 25 μM, 6 concentrations • Assay D: Activity at single concentration of 1 μM

Where only a bound is given, the exact number is not on record here.

For the compound `Cc1cccc(C)c1-c1cc2nc(n1)NS(=O)(=O)c1cccc(c1)C(=O)N(Cc1nc3c(cc1F)cc(C(C)C)n3C)[C@H](CC(C)(C)C)CO2` [Compound I-6], the Emax was over 60% and the EC50 is under 1000 nM. The matching figures for `Cc1cccc(C)c1-c1cc2nc(n1)NS(=O)(=O)c1cccc(c1)C(=O)N(Cc1cn3ccc(C(C)C)cc3n1)[C@H](CC(C)(C)C)CO2` [III-1, (11R)-6-(2,6-dimethylphenyl)-11-(2,2-dimethylpropyl)-12-[(7-isopropylimidazo[1,2-a]pyridin-2-yl)methyl]-2,2-dioxo-9-oxa-2λ^6-thia-3,5,12,19-tetrazatricyclo[12.3.1.14,8]nonadeca-1(18),4(19),5,7,14,16-hexaen-13-one]: over 60% and under 1000 nM. The matching figures for `Cc1cccc(C)c1-c1cc2nc(n1)NS(=O)(=O)c1cccc(c1)C(=O)N(Cc1cnc3oc(C4CC4)cc3n1)[C@H](CCC1(C)CCC1)CO2` [Compound I-47]: over 60% and under 1000 nM. The matching figures for `Cc1cccc(C)c1-c1cc2nc(n1)NS(=O)(=O)c1cccc(c1)C(=O)N(Cc1cnc3oc(C(C)C)c(C)c3n1)[C@H](CC1CCCCC1)CO2` [Compound I-12]: over 60% and under 1000 nM. As to `Cc1cccc(C)c1-c1cc2nc(n1)NS(=O)(=O)c1cccc(c1)C(=O)N(Cc1cnc3oc(C(C)C)c(C)c3n1)[C@H](CC1CCCC1)CO2` [Compound I-64], the Emax is over 60% and the EC50 was under 1000 nM. For the compound `Cc1cccc(C)c1-c1cc2nc(n1)NS(=O)(=O)c1cccc(c1)C(=O)N(Cc1nc3c(C(C)C)cccc3o1)[C@H](CC(C)(C)C)CO2` [III-7], the Emax was over 60% and the EC50 was under 1000 nM.

With `Cc1cccc(C)c1-c1cc2nc(n1)NS(=O)(=O)c1cccc(c1)C(=O)N(Cc1cnc3oc(C)c(C4CC4)c3n1)[C@H](CCC(C)(C)C)CO2` [Compound I-27], the Emax is over 60% and the concentration for a half-maximal effect (EC50) was under 1000 nM.

Regarding `Cc1cccc(C)c1-c1cc2nc(n1)NS(=O)(=O)c1cccc(c1)C(=O)N(Cc1cnc3cc(C(C)C)n(C)c3n1)[C@H](CC1C3(CC3)C13CC3)CO2` [Compound I-100], the Emax is over 60% and the EC50 was under 1000 nM. `Cc1cccc(C)c1-c1cc2nc(n1)NS(=O)(=O)c1cccc(c1)CN(C(=O)c1cncc(N(C)C3CCC3)n1)[C@H](CC(C)(C)C)CO2` [II-36]: the Emax is 30 to 60% and the EC50 fell in the range of 1000 to 3000 nM. The matching figures for `Cc1cccc(C)c1-c1cc2nc(n1)NS(=O)(=O)c1cccc(c1)C(=O)N(Cc1cnc3oc(C4CC4)cc3n1)[C@H](CC1(C)CC1)CO2` [Compound I-25]: over 60% and under 1000 nM. For `Cc1cccc(C)c1-c1cc2nc(n1)NS(=O)(=O)c1cccc(c1)C(=O)N(Cc1cnc3oc(C(C)C)c(C)c3n1)[C@H](CCC1(C)CCC1)CO2` [Compound I-34] the same measures were over 60% and under 1000 nM. The matching figures for `Cc1cccc(C)c1-c1cc2nc(n1)NS(=O)(=O)c1cccc(c1)C(=O)N(Cc1cnc3oc(C(C)C)cc3n1)[C@H](CC(C)C)CO2` [Compound I-1]: over 60% and under 1000 nM.

In the case of `Cc1cccc(C)c1-c1cc2nc(n1)NS(=O)(=O)c1cccc(c1)C(=O)N(Cc1cnc3oc(C(C)C)cc3n1)[C@H](CC1CCCCC1)CO2` [Compound I-9], the Emax is over 60% and the 50% effective concentration (EC50) was under 1000 nM. The matching figures for `Cc1cccc(C)c1-c1cc2nc(n1)NS(=O)(=O)c1cccc(c1)C(=O)N(Cc1cnc3cc(C(C)C)n(C)c3n1)[C@H](CC13CC(C1)C3)CO2` [Compound I-40]: over 60% and under 1000 nM. Regarding `Cc1cccc(C)c1-c1cc2nc(n1)NS(=O)(=O)c1cccc(c1)C(=O)N(Cc1cnc3c(n1)CC(C(C)C)O3)[C@H](CC1(C)CC1)CO2` (single isomer, unassigned) [III-14], the EC50 was under 1000 nM. As for `Cc1cccc(C)c1-c1cc2nc(n1)NS(=O)(=O)c1cccc(c1)C(=O)N(Cc1cnc3oc(C4CC4)cc3n1)[C@@H](COC1CCC1)CO2` (stereo in doubt) [Compound I-58], the Emax is over 60% and the EC50 is under 1000 nM. On to `Cc1cccc(C)c1-c1cc2nc(n1)NS(=O)(=O)c1cccc(c1)C(=O)N(Cc1cnc3oc(C(C)C)cc3n1)[C@H](CC1C3(CC3)C13CC3)CO2` [Compound I-101], for which the Emax is over 60% and the EC50 was under 1000 nM. Regarding `Cc1cccc(C)c1-c1cc2nc(n1)NS(=O)(=O)c1cccc(c1)C(=O)N(Cc1cnc3oc(C(C)C)c(C#N)c3n1)[C@H](COC(C)C)CO2` [Compound I-91], the Emax is over 60% and the EC50 is under 1000 nM.

As for `Cc1cccc(C)c1-c1cc2nc(n1)NS(=O)(=O)c1cccc(c1)C(=O)N(Cc1cnc3oc(C(C)C)c(C#N)c3n1)[C@H](CC1(C)CC1)CO2` [Compound I-53, 2-[[(11R)-6-(2,6-dimethylphenyl)-11-[(1-methylcyclopropyl)methyl]-2,2,13-trioxo-9-oxa-2λ^6-thia-3,5,12,19-tetrazatricyclo[12.3.1.14,8]nonadeca-1(18),4(19),5,7,14,16-hexaen-12-yl]methyl]-6-isopropyl-furo[2,3-b]pyrazine-7-carbonitrile], the Emax is over 60% and the EC50 is under 1000 nM. For `Cc1cccc(C)c1-c1cc2nc(n1)NS(=O)(=O)c1cccc(c1)C(=O)N(Cc1cn3cccc(C#N)c3n1)[C@H](CC(C)(C)C)CO2` [III-10] the same measures were over 60% and under 1000 nM. For `Cc1cccc(C)c1-c1cc2nc(n1)NS(=O)(=O)c1cccc(c1)C(=O)N(Cc1nc3c(cc1F)nc(C(C)C)n3C)[C@H](CC(C)(C)C)CO2` [Compound I-69] the same measures were over 60% and under 1000 nM.

Regarding `Cc1cccc(C)c1-c1cc2nc(n1)NS(=O)(=O)c1cccc(c1)C(=O)N(Cc1cnc3oc(C4CC4)cc3n1)[C@H](CC(C)(C)F)CO2` [Compound I-51], the Emax is over 60% and the EC50 is under 1000 nM. `Cc1cccc(C)c1-c1cc2nc(n1)NS(=O)(=O)c1cccc(c1)C(=O)N(Cc1nc3cc(C(C)C)oc3cc1F)[C@@H](COC1CCC1)CO2` (stereo in doubt) [Compound I-95]: the Emax was over 60% and the EC50 is under 1000 nM.

On to `Cc1cccc(C)c1-c1cc2nc(n1)NS(=O)(=O)c1cccc(c1)C(=O)N(Cc1cnc3oc(C(C)C)c(C)c3n1)[C@H](CCC(C)(C)C)CO2` [Compound I-11], for which the Emax is over 60% and the EC50 is under 1000 nM. For `Cc1cccc(C)c1-c1cc2nc(n1)NS(=O)(=O)c1cccc(c1)C(=O)N(Cc1cnc3cc(C(C)C)n(C)c3n1)[C@H](CCC(C)(C)F)CO2` [Compound I-106] the same measures were over 60% and under 1000 nM. On to `Cc1cccc(C)c1-c1cc2nc(n1)NS(=O)(=O)c1cccc(c1)C(=O)N(Cc1cnc3cc(C(C)C)n(C)c3n1)[C@H](CCC1(C)CCC1)CO2` [Compound I-41], for which the Emax is over 60% and the EC50 is under 1000 nM. The matching figures for `Cc1cccc(C)c1-c1cc2nc(n1)NS(=O)(=O)c1cccc(c1)C(=O)N(Cc1cnc3cc(C(C)C)n(C)c3n1)[C@@H](CCC1(C)CC1)CO2` (stereo in doubt) [Compound I-72]: over 60% and under 1000 nM. The matching figures for `Cc1cccc(C)c1-c1cc2nc(n1)NS(=O)(=O)c1cccc(c1)C(=O)N(Cc1cnc3oc(C4CC4)cc3n1)[C@H](CC1C3(CC3)C13CC3)CO2` [Compound I-102]: over 60% and under 1000 nM.
